From PubChem BioAssay AID296 (DTP/NCI, 2004)
“And” between values parts separate entries of the source, which are not always exact repeats. Identical values can stand only once. Inconclusive results are not listed.

System: MX-1 breast xenograft, nude mice, tumor weight T/C
Assay: NCI In Vivo Anticancer Drug Screen. Data for tumor model Human Mammary Carcinoma MX-1 Xenograft (intrarenal inoculation) in NU/NU Swiss (nude) mice
Details: endpoint: mean tumor weight change, higher = larger tumour
Outline: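 Activity is given as a ratio, with each measurement in the compound-treated arm divided by the matching measurement in vehicle-dosed controls. Tumour size or survival serves as the measured parameter.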

[1] = dose: 300.0 mg/kg/injection, schedule: Q04DX003 (sc), vehicle: saline with Tween-80
[2] = dose: 600.0 mg/kg/injection, schedule: Q04DX003 (sc), vehicle: saline with Tween-80
[3] = dose: 1200.0 mg/kg/injection, schedule: Q04DX003 (sc), vehicle: saline with Tween-80
[4] = dose: 2400.0 mg/kg/injection, schedule: Q04DX003 (sc), vehicle: saline with Tween-80

## COC(=O)C12OCC34C(CC5C(C)=CC(=O)C(O)C5(C)C3C(O)C1O)OC(=O)C(OC(=O)CC(C)C)C24 (stereo unspecified)
dose: 1.5 mg/kg/injection, schedule: Q04DX003 (sc), vehicle: saline + alcohol
  T/C: 107 % of control
dose: 3.0 mg/kg/injection, schedule: Q04DX003 (sc), vehicle: saline + alcohol
  T/C: 58 % of control

## O=C1SC(c2ccccc2)=S=C1c1ccccc1
[1]
  T/C: 102 % of control
[2]
  T/C: 78 % of control
[3]
  T/C: 109 % of control
[4]
  T/C: 48 % of control

## NC(CNC(=O)CBr)C(=O)O (stereo unspecified)
dose: 37.5 mg/kg/injection, schedule: Q04DX003 (sc), vehicle: water
  T/C: 53 % of control
dose: 75.0 mg/kg/injection, schedule: Q04DX003 (sc), vehicle: water
  T/C: 10 % of control and 17 % of control
dose: 100.0 mg/kg/injection, schedule: Q04DX003 (sc), vehicle: water
  T/C: 9 % of control
dose: 150.0 mg/kg/injection, schedule: Q04DX003 (sc), vehicle: water
  T/C: 8 % of control and 13 % of control

## ClCCCCCCCCCCc1ccccc1
dose: 100.0 mg/kg/injection, schedule: Q01DX010 (sc), vehicle: Klucel (hydroxypropylcellulose) (HPC)
  T/C: 89 % of control
dose: 200.0 mg/kg/injection, schedule: Q01DX010 (sc), vehicle: Klucel (hydroxypropylcellulose) (HPC)
  T/C: 44 % of control
dose: 400.0 mg/kg/injection, schedule: Q01DX010 (sc), vehicle: Klucel (hydroxypropylcellulose) (HPC)
  T/C: 116 % of control
dose: 800.0 mg/kg/injection, schedule: Q01DX010 (sc), vehicle: Klucel (hydroxypropylcellulose) (HPC)
  T/C: 93 % of control

## O=c1[nH]c2c(ccc3cnccc32)c2c1CCC2
dose: 50.0 mg/kg/injection, schedule: Q04DX003 (sc), vehicle: suspension in saline
  T/C: 71 % of control
dose: 200.0 mg/kg/injection, schedule: Q04DX003 (sc), vehicle: suspension in saline
  T/C: 70 % of control
dose: 400.0 mg/kg/injection, schedule: Q04DX003 (sc), vehicle: suspension in saline
  T/C: 100 % of control

## C/C=C/c1cc2c(c(=O)o1)C(=O)[C@@H](O)[C@H](C)O2
dose: 50.0 mg/kg/injection, schedule: Q04DX003 (sc), vehicle: saline with Tween-80
  T/C: 114 % of control
dose: 100.0 mg/kg/injection, schedule: Q04DX003 (sc), vehicle: saline with Tween-80
  T/C: 93 % of control
dose: 200.0 mg/kg/injection, schedule: Q04DX003 (sc), vehicle: saline with Tween-80
  T/C: 101 % of control

## CCCCC(=O)OCC(=O)[C@]1(O)Cc2c(O)c3c(c(O)c2[C@@H](OC2CC(NC(=O)C(F)(F)F)C(O)C(C)O2)C1)C(=O)c1c(OC)cccc1C3=O (stereo partly specified)
dose: 64.0 mg/kg/injection, schedule: Q01DX010 (sc), vehicle: distilled water + Tween-80
  T/C: 91 % of control
dose: 128.0 mg/kg/injection, schedule: Q01DX010 (sc), vehicle: distilled water + Tween-80
  T/C: 56 % of control
dose: 256.0 mg/kg/injection, schedule: Q01DX010 (sc), vehicle: distilled water + Tween-80
  T/C: 34 % of control

## CNc1cccnc1/C=N/NC(N)=S
[1]
  T/C: 114 % of control
[2]
  T/C: 61 % of control
[3]
  T/C: 55 % of control
[4]
  T/C: 77 % of control

## CC1(O)C=CC(=O)C=C1
dose: 25.0 mg/kg/injection, schedule: Q04DX003 (ip), vehicle: water
  T/C: 109 % of control
dose: 50.0 mg/kg/injection, schedule: Q04DX003 (ip), vehicle: water
  T/C: 89 % of control

## CCCCC1CCCCCCc2[nH]c(/C=C3\N=C(c4ccc[nH]4)C=C3OC)cc21 (stereo unspecified)
dose: 4.0 mg/kg/injection, schedule: Q04DX003 (sc), vehicle: saline with Tween-80
  T/C: 82 % of control
dose: 8.0 mg/kg/injection, schedule: Q04DX003 (sc), vehicle: saline with Tween-80
  T/C: 107 % of control
dose: 16.0 mg/kg/injection, schedule: Q04DX003 (sc), vehicle: saline with Tween-80
  T/C: 105 % of control
dose: 32.0 mg/kg/injection, schedule: Q04DX003 (sc), vehicle: saline with Tween-80
  T/C: 80 % of control

## CC(=O)Oc1ccccc1O
dose: 75.0 mg/kg/injection, schedule: Q04DX003 (sc), vehicle: saline + Tween-80 + alcohol
  T/C: 89 % of control
dose: 150.0 mg/kg/injection, schedule: Q04DX003 (sc), vehicle: saline + Tween-80 + alcohol
  T/C: 117 % of control
dose: 600.0 mg/kg/injection, schedule: Q04DX003 (sc), vehicle: saline + Tween-80 + alcohol
  T/C: 68 % of control

## O=C(O)CP(=O)(O)O
dose: 300.0 mg/kg/injection, schedule: Q04DX003 (sc), vehicle: saline
  T/C: 87 % of control
dose: 600.0 mg/kg/injection, schedule: Q04DX003 (sc), vehicle: saline
  T/C: 89 % of control
dose: 1200.0 mg/kg/injection, schedule: Q04DX003 (sc), vehicle: saline
  T/C: 83 % of control
dose: 2400.0 mg/kg/injection, schedule: Q04DX003 (sc), vehicle: saline
  T/C: 59 % of control

## Nc1ncnc2c1ncn2C1OC(COP(=O)(O)O)C(O)C1O (stereo unspecified)
dose: 100.0 mg/kg/injection, schedule: Q01DX010 (ip), vehicle: saline
  T/C: 85 % of control
dose: 200.0 mg/kg/injection, schedule: Q01DX010 (ip), vehicle: saline
  T/C: 90 % of control
dose: 333.33 mg/kg/injection, schedule: Q04DX003 (sc), vehicle: saline
  T/C: 124 % of control
dose: 400.0 mg/kg/injection, schedule: Q01DX010 (ip), vehicle: saline
  T/C: 51 % of control
dose: 666.65 mg/kg/injection, schedule: Q04DX003 (ip), vehicle: saline
  T/C: 106 % of control
dose: 666.65 mg/kg/injection, schedule: Q04DX003 (sc), vehicle: saline
  T/C: 115 % of control
dose: 800.0 mg/kg/injection, schedule: Q01DX010 (ip), vehicle: saline
  T/C: 6 % of control
dose: 1333.3 mg/kg/injection, schedule: Q04DX003 (ip), vehicle: saline
  T/C: 49 % of control
dose: 1333.3 mg/kg/injection, schedule: Q04DX003 (sc), vehicle: saline
  T/C: 62 % of control
dose: 1600.0 mg/kg/injection, schedule: Q01DX010 (sc), vehicle: saline
  T/C: -36 % of control
dose: 2666.6 mg/kg/injection, schedule: Q04DX003 (ip), vehicle: saline
  T/C: 29 % of control
dose: 2666.6 mg/kg/injection, schedule: Q04DX003 (sc), vehicle: saline
  T/C: 76 % of control

## NC(=O)/C=C/c1c[nH]c2nccnc12
dose: 25.0 mg/kg/injection, schedule: Q04DX003 (sc), vehicle: water
  T/C: 98 % of control
dose: 50.0 mg/kg/injection, schedule: Q04DX003 (sc), vehicle: water
  T/C: 46 % of control

## C(=N/NC1=NCCN1)/c1c2ccccc2c(/C=N\NC2=NCCN2)c2ccccc12
dose: 75.0 mg/kg/injection, schedule: Q04DX003 (sc), vehicle: suspension in saline
  T/C: 11 % of control and 25 % of control
dose: 150.0 mg/kg/injection, schedule: Q04DX003 (sc), vehicle: suspension in saline
  T/C: 17 % of control and 18 % of control
